Values quoted from earlier work in US20040210280A1, “Plaster-type chip systems for thermodynamic control of topical dermal and transdermal systems” (BIONICS PHARMA GmbH, priority 2002, published 2004).

Experiments:
[1] = in vivo
[2] = in vivo; remark: listed apart in the source

Molecule | concentrations of nitroglycerine in the plasma [1] | plasma concentrations of nitroglycerine [1] | rate of disappearance from the subcutaneous tissue [2]
O=[N+]([O-])OCC(CO[N+](=O)[O-])O[N+](=O)[O-] [nitroglycerine] | increased by two to three times | decrease | –
125I-labelled insulin: previously injected 125I-labelled insulin | – | – | increased rate of disappearance
